Consider three substances from publication PMC11578372, “ProT‐Diff: A Modularized and Efficient Strategy for De Novo Generation of Antimicrobial Peptide Sequences by Integrating Protein Language and Diffusion Models” (Advanced Science, 2024).

Like-named read-outs stand apart in the source and are kept apart here. Where no end group is shown, it is not given here.

One data set concerns E. coli mgrB mutant 23#. In words: Lethal murine acute peritonitis model. Type of data set: in vivo, mouse (female BALB/c). The conditions noted are these: for survival versus PBS treatment group (log-rank test): AMP_2 single IP dose, penicillin 50000 units per kg every 12 h for 3 d. The procedure: Female BALB/c mice weighing ≈18 g and aged 5–6 weeks were used to build a lethal murine acute peritonitis model according to previously established protocols.^[ [43], [44], [45] ^] The mice were subjected to intraperitoneal injections with E. colimgrB mutant 23^#suspension (0.2 mL per mouse) at concentration of 5×10^5 CFU mL^−1, 5×10^6 CFU mL^−1, 5×10^7 CFU mL^−1, respectively. […] Each group comprised of eight mice.
Subsequently, the mice were administered varying doses of AMP_2 (0.125, 0.25, 0.5, 1, 2, and 4 mg kg^−1) immediately after infection. As controls, the infected mice received intraperitoneal injections of sterile PBS or underwent penicillin treatment (0.2 mL per mouse). The single dose of penicillin administered was 50000 units per kg, and the mice received antibiotic treatment every 12 h for 3 d. The behavior and survival of the animals were monitored over a 7‐day period. Blood samples were collected from the mice before euthanasia for routine blood tests. The experiments were conducted in groups of eight mice.

The test system of data set [1] is E. coli. Type of data set: cell-based, Escherichia coli. The procedure: (§1) For the MIC determination of selected AMPs, 100 ul bacterial culture with an OD600 value of ≈0.1 was incubated with AMPs at concentrations ranging from 0 to 100 µM at 37 °C for 15–18 h. Herein, the MIC was determined as the minimum concentration of AMPs at which no detectable bacterial growth was observed.
(§2) All experiments were conducted with a minimum of four independent replicates. Student's t‐test was used to compare the means between the experimental and control groups (two‐sided).

Data set [2] in a line: Cytotoxicity against mammalian cells (CCK-8). The following applies: human, 293T, CCK-8, n = 6, read-out: half maximal inhibitory concentration (IC50), cytotoxicity. The data set is classed as cell-based. The procedure:
Cell Counting Kit 8 (CCK‐8) assay was used to assess the cytotoxicity of the AMPs against mammalian cells. Specifically, ≈4000 293T cells were seeded per well in a 96‐well cell culture plate (Corning, US), and were incubated at 37 °C with 5% CO2 for 24 h. Subsequently, the culture medium was replaced by different concentrations of AMPs solution diluted with the medium. The cells were co‐incubated with AMPs solution for an additional 24 h at 37 °C. And then, 10 µl of the CCK‐8 reagent (Beijing Lablead Biotech, China) was added to each well for 2 h of incubation at 37 °C. Finally, OD at 450 nm was measured using an imaging multimode microplate reader (Cytation 3, BioTek, US). Cell viability was defined as the percentage of each concentration relative to the control. Six replicates were used for the CCK‐8 assay.

For another data set, the system named is all tested bacteria. Type of data set: cell-based.
Description: Gram‐negative bacteria include E. coli DH5α, E. coli O157: H7 CICC 21530, S. typhimurium CICC 21484, A. baumannii AB6, and P. aeruginosa ATCC 15442. Gram‐positive bacteria included S. aureus ATCC 33591, Methicillin‐resistant MRSA ATCC 43300, B. subtilis ATCC 9372. L. sphaericus CCM 2177. Two E. coli clinical isolates with mgrB mutations from Tongji Hospital (Wuhan, China) were used in this study, namely E. coli mgrB mutant 2^# and E. coli mgrB mutant 23^#.
as §1, §2

The next data set has as its system E. coli DH5α. Put plainly: TEM of cell membrane damage. The conditions noted are these: 1× MIC, 2–8 h, 37 °C. Type of data set: cell-based, Escherichia coli. The procedure:
Transmission Electron Microscopy (TEM) was employed to assess the cell membrane damage induced by AMPs. First, 50 µL of E. coli DH5α culture with an OD600 of ≈0.1 were mixed with 50 µL of AMPs solution (at 1× MIC) in a 96‐well plate. This mixture was incubated at 37 °C for 2, 4, 8, and 16 h. Following the incubation period, the bacteria were pelleted by centrifugation at 6,000 rpm for 5 min and fixed with 2.5% (vol/vol) glutaraldehyde in phosphate buffer (PB, 0.1 M, pH 7.4). Subsequently, the cells were postfixed with 1% (wt/vol) osmium tetraoxide in PB for 2 h at 4 °C, and were dehydrated through a graded ethanol series (30%, 50%, 70%, 80%, 90%, 100%, with each step lasting 7 min) before being put in pure acetone by two 10‐min steps. Following dehydration, the samples were subjected to infiltration using progressively mixed combinations of acetone and SPI‐PON812 resin (composed of 16.2 g SPI‐PON812, 10 g DDSA, and 8.9 g NMA) in ratios of 3:1, 1:1, and 1:3. The infiltration medium was then replaced with pure resin. Finally, the cells were embedded in pure resin containing 1.5% BDMA and polymerized for 12 h at 45 °C, followed by an additional 48 h polymerization at 60 °C. Ultrathin sections (70 nm thick) were obtained using a microtome (Leica EM UC6), double‐stained with uranyl acetate and lead citrate, and examined using a transmission electron microscope (FEI Tecnai Spirit 120 kV).

Data set [3] has as its system E. coli. The following applies: cited from earlier work. From the text: (§3) In general, a higher antimicrobial potency in antimicrobial peptides often correlates with an elevated risk of heightened cytotoxicity and hemolytic activity. […] However, even at a ...
For another data set, the system named is human cell. The conditions noted are these: 10 µg mL−1 (3.5 µM); cited from earlier work.
Description: as §3

For data set [4] the following is noted: 1 µg mL−1 (0.35 µM); cited from earlier work.
Description: as §3

As for “KWKFFKKIRKVGKKIRKVIKKIGKAVGAAAQAAGQAANA [AMP_2]”, in the data set with E. coli mgrB mutant 23# (4 mg kg−1 IP, surviving infected mice), the “body weight by the sixth day post-infection” value is listed as “slight decrease in body weight”. In addition, the “survival versus PBS treatment group (log-rank test)” value with E. coli mgrB mutant 23# (8 mice per group) is given as “significant differences in survival”. For the same substance, in the data set with E. coli mgrB mutant 23# (blood collected before euthanasia, infected mice treated with AMP_2), the “routine blood components, treatment versus control group” value was “not significantly different”. The “protection of infected mice (survival)” value with E. coli mgrB mutant 23# (single IP dose 0.5 mg kg−1 immediately after infection, 5×10^5 CFU mL−1, 7-day observation, 8 mice per group) was “complete protection”. The substance also yielded an MIC in the data set with E. coli [1] of 2.5 µM. For the same substance, in data set [2], the IC50 at 24 h was over 40 µM. Besides, the “MIC / spectrum against the tested bacteria” value in the data set with all tested bacteria is reported as at most 20 µM. Also, the “bacterial morphology by TEM” value in the data set with E. coli DH5α is reported as “serious leakage of cellular contents”.
With melittin, in the data set with E. coli [3], the MIC is 1 to 15 µM. Also, in the data set on human cell, the human cell death is over 50%. The hemolysis of cells in data set [4] was 50%.
With penicillin [reference compound], in the data set on E. coli mgrB mutant 23# (8 mice per group), the “survival versus PBS treatment group (log-rank test)” value is “no significant difference”.

As usually defined, the MIC is the smallest concentration in the dilution series that meets the test's criterion for growth inhibition.
